This note sets out measurements from ChEMBL document CHEMBL3745709, “Synthesis of novel ethyl 1-ethyl-6-fluoro-7-(fatty amido)-1,4-dihydro-4-oxoquinoline-3-carboxylate derivatives and their biological evaluation” (Bioorg Med Chem Lett, 2016).

Values after ≈ are worked out from the molar mass of the structure shown.

A short description of data set [1]: Cytotoxicity against human DU145 cells assessed as reduction in cell viability by MTT assay. It counts as functional, cell-based. Particulars: DU-145; call rule not given here. For orientation: Tetrazolium dyes change colour on reduction, which living cells bring about.
Data set [2] is described as follows: Cytotoxicity against human SKOV3 cells assessed as reduction in cell viability by MTT assay. Conditions: SK-OV-3. In kind it is functional, cell-based.
The nature of data set [3]: Cytotoxicity against human IMR90 cells assessed as reduction in cell viability by MTT assay. It counts as cell-based. Particulars: IMR-90.
Data set [4] can be described thus: Antioxidant activity assessed as DPPH free radical scavenging activity. It counts as physicochemical. Background: DPPH is a stable violet radical that fades when it is reduced.
The test system of data set [5] is A549. Nature of the data set: Cytotoxicity against human A549 cells assessed as reduction in cell viability by MTT assay. In kind it is functional, cell-based.
Data set [6] relates to MCF7. Briefly: Cytotoxicity against human MCF7 cells assessed as reduction in cell viability by MTT assay. In kind it is functional, cell-based.
Data set [7] concerns IMR-90. Nature of the data set: Selectivity index, ratio of IC50 for human IMR90 cells to IC50 for human DU145 cells. It counts as functional.
Data set [8] concerns A549. Nature of the data set: Selectivity index, ratio of IC50 for human IMR90 cells to IC50 for human A549 cells. It counts as functional.
The subject of data set [9] is SK-OV-3. Nature of the data set: Selectivity index, ratio of IC50 for human IMR90 cells to IC50 for human SKOV3 cells. In kind it is functional.
In data set [10] the test system is IMR-90. Briefly: Selectivity index, ratio of IC50 for human IMR90 cells to IC50 for human MCF7 cells. In kind it is functional.
In data set [11] the test system is Micrococcus luteus. Nature of the data set: Antibacterial activity against Micrococcus luteus MTCC 2470 assessed as inhibition zone after 24 hrs at 30 degC by well diffusion method. It counts as functional. Particulars: MTCC 2470, 24 h. For orientation: In agar diffusion tests the substance spreads into inoculated agar from a disc or well.
The subject of data set [12] is Staphylococcus aureus. Nature of the data set: Antibacterial activity against Staphylococcus aureus MTCC 96 […] after 24 hrs at 30 degC by well diffusion method. It counts as functional. Particulars: MTCC 96, 24 h.
The subject of data set [13] is Staphylococcus aureus. Briefly: Antibacterial activity against Staphylococcus aureus MLS-16 MTCC 2940 assessed as inhibition zone after 24 hrs at 30 degC by well diffusion method. It counts as functional. Conditions: MLS-16 MTCC 2940, 24 h.
Data set [14] concerns Bacillus subtilis. Briefly: Antibacterial activity against Bacillus subtilis MTCC 121 assessed as inhibition zone after 24 hrs at 30 degC by well diffusion method. In kind it is functional. Conditions: MTCC 121, 24 h.
Data set [15] concerns Escherichia coli. Nature of the data set: Antibacterial activity against Escherichia coli MTCC 739 assessed as inhibition zone after 24 hrs at 30 degC by well diffusion method. Particulars: MTCC 739, 24 h. It counts as functional.
In data set [16] the test system is Pseudomonas aeruginosa. Nature of the data set: Antibacterial activity against Pseudomonas aeruginosa MTCC 2453 assessed as inhibition zone after 24 hrs at 30 degC by well diffusion method. In kind it is functional. Particulars: MTCC 2453, 24 h.
The test system of data set [17] is Raoultella planticola. Nature of the data set: Antibacterial activity against Klebsiella planticola MTCC 530 assessed as inhibition zone after 24 hrs at 30 degC by well diffusion method. Conditions: MTCC 530, 24 h. In kind it is functional.
Data set [18] has as its system Candida albicans. Briefly: Antifungal activity against Candida albicans MTCC 3017 […] after 24 hrs at 30 degC by well diffusion method. In kind it is functional. Conditions: MTCC 3017, 24 h.

Broadly, the IC50 is the concentration at which inhibition is half-maximal. Turning to `COc1cccc2c1C(=O)c1c(O)c3c(c(O)c1C2=O)C[C@@](O)(C(=O)CO)C[C@@H]3O[C@H]1C[C@H](N)[C@H](O)[C@H](C)O1` [DOXORUBICIN], the IC50 is 0.7 µM in data set [1], 0.7 µM in [2] and 21.3 µM in data set [3].
As usually defined, the EC50 is the midpoint of the concentration-response curve. `Cc1c(C)c2c(c(C)c1O)CC[C@@](C)(CCC[C@H](C)CCC[C@H](C)CCCC(C)C)O2` [ALPHA-TOCOPHEROL]: the half-maximal effective concentration (EC50) in [4] is 10.4 µg/mL (≈ 24.1 µM).
One may read the MIC as the lowest concentration that inhibits growth of the organism. On to `CCCCCCCC(=O)Nc1cc2c(cc1F)c(=O)c(C(=O)OCC)cn2CC`, for which the IC50 in [1] stood at 10.1 µM; in data set [5] it was 9.2 µM; in data set [2] it was 8.1 µM; in data set [6], 7.9 µM; in data set [3], 91.2 µM. The “Ratio IC50” value is on record as 9 in data set [7], 9.9 in data set [8], 11.2 in [9] and 11.5 in data set [10]. Further, the EC50 in [4] came to 109.8 µg/mL (≈ 271 µM). Moreover, the minimal inhibitory concentration (MIC) in data set [11], in data set [12], in data set [13], in [14], in data set [15] and in data set [16] was greater than 125 µg/mL throughout. The MIC in data set [17] and in [18] was greater than 125 µg/mL each time.
For the compound `CCCCCCCCCCCCCCCC(=O)Nc1cc2c(cc1F)c(=O)c(C(=O)OCC)cn2CC`, the half-maximal inhibitory concentration (IC50) in [1] was 25.2 µM; in [5], 24.3 µM; in data set [2], 17.8 µM; in [6] it was 18.6 µM. Further, the EC50 entry in data set [4] is “Not Active”. Besides, the minimal inhibitory concentration (MIC) in data set [11], in [12], in [13], in [14], in data set [15] and in data set [16] was greater than 125 µg/mL each time. Further, the MIC in data set [17] and in [18] was greater than 125 µg/mL throughout.
Take `CCCCCCCCCCCC(=O)Nc1cc2c(cc1F)c(=O)c(C(=O)OCC)cn2CC`: the concentration for half-maximal inhibition (IC50) was determined as 12.1 µM in data set [1]; 10.3 µM in data set [5]; 9.8 µM in [2]; 11.2 µM in data set [6]; 79.8 µM in data set [3]. Also, the “Ratio IC50” value in [7] worked out at 6.6; in data set [8], 7.7; in data set [9] it was 8.1; in data set [10], 7.1. The EC50 entry in data set [4] is recorded as “Not Active”. Moreover, the MIC in [11], in [12], in data set [13], in [14], in data set [15] and in data set [16] was greater than 125 µg/mL each time. The MIC in [17] and in data set [18] was greater than 125 µg/mL in each case.
As for `CCCCCCCCCCCCCCCCCC(=O)Nc1cc2c(cc1F)c(=O)c(C(=O)OCC)cn2CC`, the IC50 in [1] worked out at 37.1 µM; in data set [5] it was 32.6 µM; in data set [2], 35.2 µM; in data set [6], 28.4 µM. In addition, in [4], the 50% effective concentration (EC50) turned out to be 798.8 µg/mL (≈ 1470 µM). In addition, the minimal inhibitory concentration (MIC) in data set [11], in [12], in data set [13], in data set [14], in [15] and in data set [16] was greater than 125 µg/mL in each case. The MIC in [17] and in data set [18] was greater than 125 µg/mL each time.
